# Assay results published in patent publication US9532983B2, “Benzofuran compounds, compositions, kits and/or methods thereof” (Savannah State University, priority 2013, dated 2017).
# Where two headings read alike, the source gives them in different places.
# What was measured:
# [1] = tested on: VDAC2; experiment: Western blot / densitometry, expression of VDAC2 in MA-10 cells; type: cell-based, mouse; details: increasing concentrations
# Description: (§1) Mouse Leydig cell line (MA-10) was grown in Waymouth media containing 15% horse serum, 5% fetal bovine serum, and 1× gentamycin, which was replaced with […] G418 (geneticin) for VDAC1 knockdown (ΔVDAC1) MA10 cells. Cells were maintained at 37° C. in a humidified incubator under 5% CO2. To isolate mitochondria, cells were removed from tissue culture plates by gentle scrapping in phosphate-buffered saline at room temperature, incubated in hypotonic buffer (10 mM HEPES, pH 7.4) for 30 to 40 min, and mitochondria were isolated following readily available procedures. The mitochondrial preparation was verified by Western blotting with the cytochrome P450 SCC enzyme (Corgen, Tapai, Taiwan) and calnexin antibodies (Santa Cruz Biotechnology, Inc., Santa Cruz, Calif.).
# Protein (12.5 μg) was separated by 15% SDS-polyacrylamide gel electrophoresis and transferred to a polyvinylidinedifluoride membrane (Millipore Corporation, Billerica, Mass.). The membrane was blocked with 3% nonfat dry milk for 45 min, probed overnight with the primary antibodies, and then incubated with […] goat anti-rabbit or anti mouse IgG (Thermo Fisher Scientific, Waltham, Mass.). Signals were developed with chemiluminescent reagent (Thermo Fisher Scientific). For loading control of all Western blots, the membrane was stained with β-actin antibody, which was previously independently stained with StAR or 3-β-hydroxysteroid dehydrogenase (3βHSD2) or VDAC1 and VDAC2 antiserum. The band intensity was determined by using Image Quant 5.2 (Phosphorimager; GE Healthcare, Chalfont St. Giles, Buckinghamshire, UK). Densitometric calculation may reflect the ratio of σ1 or VDAC2 and β-actin following an established procedure that is readily available.
# In addition, VDAC2 antibody (FIG. 3E) was used to probe and was compared with β-actin expression (FIG. 3F) of the same membrane.
# [2] = biological target: T1, Alpha2C (Homo sapiens, UniProt P18825); experiment: Primary binding assay at non-sigma receptors: Alpha2C; details: 10 μM (final) assay concentration
# T1 construct: expressed in transfected cells
# T1 sequence (P18825 1-462): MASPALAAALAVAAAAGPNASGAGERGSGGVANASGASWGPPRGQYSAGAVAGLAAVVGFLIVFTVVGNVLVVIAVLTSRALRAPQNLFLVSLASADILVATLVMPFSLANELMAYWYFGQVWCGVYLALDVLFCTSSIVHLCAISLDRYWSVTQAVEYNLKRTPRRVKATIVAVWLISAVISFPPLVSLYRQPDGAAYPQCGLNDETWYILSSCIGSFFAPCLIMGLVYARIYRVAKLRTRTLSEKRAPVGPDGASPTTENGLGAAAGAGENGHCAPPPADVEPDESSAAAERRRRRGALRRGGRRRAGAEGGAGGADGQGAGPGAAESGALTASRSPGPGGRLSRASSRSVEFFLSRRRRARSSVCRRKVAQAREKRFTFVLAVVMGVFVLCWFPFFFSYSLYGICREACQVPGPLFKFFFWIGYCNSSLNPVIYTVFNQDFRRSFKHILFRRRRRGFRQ
# Description: (§2) Initial primary binding screening assays were performed using a 50 μM (initial)−10 μM (final) assay concentration of reference and test compounds.
# [3] = biological target: T2, M4 (Homo sapiens, UniProt P08173); experiment: Primary binding assay at non-sigma receptors: M4; details: 10 μM (final) assay concentration
# T2 construct: expressed in transfected cells
# T2 sequence (P08173 1-479): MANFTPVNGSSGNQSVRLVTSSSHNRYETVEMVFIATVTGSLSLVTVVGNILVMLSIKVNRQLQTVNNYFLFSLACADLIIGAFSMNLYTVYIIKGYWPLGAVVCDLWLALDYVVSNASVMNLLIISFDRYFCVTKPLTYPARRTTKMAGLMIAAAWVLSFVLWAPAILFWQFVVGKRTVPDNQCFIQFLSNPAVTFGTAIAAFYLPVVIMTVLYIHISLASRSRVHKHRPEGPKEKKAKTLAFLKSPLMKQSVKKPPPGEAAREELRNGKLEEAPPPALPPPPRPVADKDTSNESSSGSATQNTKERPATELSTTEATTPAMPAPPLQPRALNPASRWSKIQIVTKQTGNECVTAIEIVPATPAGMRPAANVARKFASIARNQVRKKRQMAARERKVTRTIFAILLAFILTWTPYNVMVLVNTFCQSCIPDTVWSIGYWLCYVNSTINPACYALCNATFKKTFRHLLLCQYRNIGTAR
# Description: as §2
# [4] = biological target: T3, 5HT3 (Homo sapiens, UniProt P46098); experiment: Primary binding assay at non-sigma receptors: 5HT3; details: 10 μM (final) assay concentration
# T3 construct: expressed in transfected cells
# T3 sequence (P46098 24-478): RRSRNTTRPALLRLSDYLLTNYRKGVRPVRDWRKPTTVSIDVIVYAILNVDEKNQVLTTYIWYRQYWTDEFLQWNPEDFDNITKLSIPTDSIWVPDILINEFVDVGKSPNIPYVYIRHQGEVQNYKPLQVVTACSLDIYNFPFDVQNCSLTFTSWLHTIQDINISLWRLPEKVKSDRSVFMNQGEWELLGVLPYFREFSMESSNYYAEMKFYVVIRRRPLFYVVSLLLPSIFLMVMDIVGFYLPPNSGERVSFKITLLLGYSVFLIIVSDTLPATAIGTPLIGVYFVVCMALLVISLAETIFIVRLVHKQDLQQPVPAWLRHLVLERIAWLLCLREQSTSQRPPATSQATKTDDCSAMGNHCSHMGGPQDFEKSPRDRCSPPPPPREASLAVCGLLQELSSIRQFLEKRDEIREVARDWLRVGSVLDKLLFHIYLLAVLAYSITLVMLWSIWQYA
# Description: as §2
# [5] = tested on: mitochondria from steroidogenic MA-10 cells; experiment: Metabolic conversion of [3H]pregnenolone to progesterone in isolated MA-10 mitochondria; type: biochemical, mouse
# Description: as §1
# To measure the conversion of [^3H]pregnenolone to [^3H]progesterone, isolated mitochondria from steroidogenic MA-10 cells (300 μg) were incubated in phosphate buffer along with the substrate, and the reaction was initiated by the NAD. For metabolic conversion of [^14C]cholesterol to pregnenolone, the reaction was initiated by the addition of NADPH, and for complete conversion we used 5-fold excess of cold carrier to reach the saturation point. The steroids were extracted with ether/acetone (9:1 v/v), and equal amounts of a cold pregnenolone-progesterone (50:50; Sigma, St. Louis, Mo.) mixture in CH2C12 was added as a carrier. The extracts were concentrated under a stream of nitrogen or air and then separated by thin-layer chromatography (TLC) (Whatman, Clifton, N.J.) using a chloroform/ethyl acetate (3:1) mobile phase.
# Given the potential role of σ1 in steroidogenesis (FIG. 4A), we performed conversion assays in the presence of three sigma receptor ligands. […] The possibility exists that the σ1 receptor transiently interacts with the OMM-associated porins. As such, the increased levels of σ1 receptor with KSCM-11 may enhance the transport of substrate cholesterol into the mitochondria, thereby increasing progesterone synthesis.
# [6] = biological target: T4, 5-HT2B (Homo sapiens, UniProt P41595); experiment: Primary binding assay at non-sigma receptors: 5-HT2B; details: read-out: % Inhibition 5-HT2B
# T4 construct: expressed in transfected cells
# T4 sequence (P41595 whole entry, species assumed): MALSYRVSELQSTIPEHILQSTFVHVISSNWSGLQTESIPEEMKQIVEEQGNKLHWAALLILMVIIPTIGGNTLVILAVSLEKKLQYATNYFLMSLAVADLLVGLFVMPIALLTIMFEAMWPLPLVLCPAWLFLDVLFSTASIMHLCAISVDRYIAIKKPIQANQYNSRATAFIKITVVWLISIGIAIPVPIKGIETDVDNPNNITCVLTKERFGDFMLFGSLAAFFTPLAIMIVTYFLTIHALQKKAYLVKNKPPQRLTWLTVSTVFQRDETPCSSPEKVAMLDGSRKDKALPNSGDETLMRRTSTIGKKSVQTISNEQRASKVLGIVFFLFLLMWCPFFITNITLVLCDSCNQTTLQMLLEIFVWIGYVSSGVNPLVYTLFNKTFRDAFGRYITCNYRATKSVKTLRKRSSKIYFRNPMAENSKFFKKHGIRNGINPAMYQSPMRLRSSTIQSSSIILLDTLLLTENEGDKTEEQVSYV
# Description: as §2
# [7] = biological target: T5, 5-HT2A (Homo sapiens, UniProt P28223); experiment: Primary binding assay at non-sigma receptors: 5-HT2A; details: 10 μM (final) assay concentration
# T5 construct: expressed in transfected cells
# T5 sequence (P28223 whole entry): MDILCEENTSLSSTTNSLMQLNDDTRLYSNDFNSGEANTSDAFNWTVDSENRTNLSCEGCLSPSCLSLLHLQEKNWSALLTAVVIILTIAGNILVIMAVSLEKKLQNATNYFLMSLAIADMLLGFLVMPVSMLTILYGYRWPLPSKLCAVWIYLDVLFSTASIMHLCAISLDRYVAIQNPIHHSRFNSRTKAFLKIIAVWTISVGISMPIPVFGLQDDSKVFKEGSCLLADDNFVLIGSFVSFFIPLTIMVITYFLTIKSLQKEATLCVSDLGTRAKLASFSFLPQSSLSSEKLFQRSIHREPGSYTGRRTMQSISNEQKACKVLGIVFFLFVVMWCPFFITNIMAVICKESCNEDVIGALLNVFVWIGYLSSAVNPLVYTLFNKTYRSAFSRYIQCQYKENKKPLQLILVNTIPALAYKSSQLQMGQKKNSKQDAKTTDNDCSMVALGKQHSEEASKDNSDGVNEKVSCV
# Description: as §2
# [8] = higher concentrations than 10 nM
structure (smiles),measurement,setting,value
"COc1cc2oc(C(=O)N(CCCN3CCCCC3)c3ccccc3)c(C)c2cc1OC [KSCM-1, 5,6-Dimethoxy-3-methyl-N-phenyl-N-(3-(piperidin-1-yl)propyl)benzofuran-2-carboxamide]",expression of VDAC2 (in words),[1],increased with increasing concentrations
same,inhibition at 10 µM,[2],78.9%
same,inhibition at 10 µM,[3],54.4%
same,inhibition at 10 µM,[4],64.2%
same,effect on progesterone conversion (in words),[5]; [8],reduced conversion to the basal level
same,inhibition at 10 µM,[6],43.8%
same,inhibition at 10 µM,[7],76.6%
"Cc1c(C(=O)N(CCCN2CCCCC2)c2ccccc2)oc2ccccc12 [KSCM-5, 3-Methyl-N-phenyl-N-(3-(piperidin-1-yl)propyl)benzofuran-2-carboxamide]",expression of VDAC2 (in words),[1],decreased with increasing concentrations
same,inhibition at 10 µM,[2],61.9%
same,inhibition at 10 µM,[3],43.1%
same,inhibition at 10 µM,[4],2.9%
same,effect on progesterone conversion (in words),[5]; 10 nM,no effect
same,effect on progesterone conversion (in words),[5]; [8],conversion decreased significantly
same,inhibition at 10 µM,"[6]; primary binding assay, 10 μM (final) assay concentration",69.2%
same,inhibition at 10 µM,[7],18.1%
"COc1ccc2c(C)c(C(=O)N(CCCN3CCCCC3)c3ccccc3)oc2c1 [KSCM-11, 6-Methoxy-3-methyl-N-phenyl-N-(3-(piperidin-1-yl)propyl)benzofuran-2-carboxamide]",expression of VDAC2 (in words),[1],decreased with increasing concentrations
same,inhibition at 10 µM,[2],49%
same,inhibition at 10 µM,[3],68.4%
same,inhibition at 10 µM,[4],7.3%
same,effect on progesterone conversion (in words),[5]; 10 nM,no effect
same,effect on progesterone conversion (in words),[5]; [8],conversion decreased significantly
same,inhibition at 10 µM,[6],93.9%
same,inhibition at 10 µM,[7],61.2%
